Results taken from patent publication US10526352B2, “Tricyclic benzoxaborole compounds and uses thereof” (GlaxoSmithKline Intellectual Property (No.2) Limited, priority 2013, dated 2020).
≈ marks a conversion by molar mass, not a printed value. Like-named read-outs stand apart in the source and are kept apart here.

Tests used:
[1] = test system: M. tuberculosis standard strain Mtb H37Rv; assay: MIC determination against mycobacteria (resazurin, Middlebrook 7H9); format: cell-based, Mycobacterium tuberculosis
[2] = test system: E. coli K12 tolC::Tn10; assay: General antimicrobial activity assay (CLSI broth microdilution); format: cell-based, Escherichia coli
Description: (§1) Whole-cell antimicrobial activity was determined by broth microdilution using the Clinical and Laboratory Standards Institute (CLSI) recommended procedure, Document M7-A7, “Methods for Dilution Susceptibility Tests for Bacteria that Grow Aerobically”.

[3] = test system: E. coli K12; assay: as above; format: cell-based, Escherichia coli
Description: as §1

[4] = test system: A. baumannii ATCC 17978; assay: as above; format: cell-based, Acinetobacter baumannii
Description: as §1

[5] = test system: P. aeruginosa PA01; assay: as above; format: cell-based, Pseudomonas aeruginosa
Description: as §1

[6] = test system: HepG2 cells
[7] = test system: M. tuberculosis clinical isolates; assay: MIC against clinical strains (BACTEC MGIT 960 System); format: cell-based; settings: Mycobacterium tuberculosis
[8] = Mycobacterium tuberculosis, H37RV, read-out: Mtb H37Rv MIC (B)
[9] = HepG2 Tox50 (A) / Mtb H37Rv MIC (B)
[10] = Mycobacterium tuberculosis, H37RV; read-out: Mtb H37Rv MIC (B)

## Cl.NCC1OB2OCCOc3ccc(F)c1c32 (stereo not drawn) [Example 5, (3-fluoro-7,8-dihydro-2H-1,6,9-trioxa-9a-borabenzo[cd]azulen-2-yl)methanamine hydrochloride)]
[1]; [8]
  MIC: 0.6 µM

## CC1(C)COc2ccc(Br)c3c2B(OC3CN)O1.Cl (stereo not drawn) [Example 9, (3-bromo-8,8-dimethyl-7,8-dihydro-2H-1,6,9-trioxa-9a-borabenzo[cd]azulen-2-yl)methanamine hydrochloride]
[1]; [8]
  MIC: 0.3 µM
[2]
  MIC: E. coli K12 tolC::Tn10: >64 µg/mL
[3]
  MIC: E. coli K12: >64 µg/mL
[4]
  MIC: A. baumannii ATCC 17978: >64 µg/mL
[5]
  MIC: P. aeruginosa PA01: >64 µg/mL
[6]; 48 h
  HepG2 cell 48 h Tox50 (A): >50 µM
[6]; hydrochloride
  Selectivity Index (A/B): >167

## Cl.NCC1OB2OCCOc3ccc(Br)c1c32 (stereo not drawn) [Example 1]
[2]
  MIC: E. coli K12 tolC::Tn10: >64 µg/mL
[3]
  MIC: E. coli K12: >64 µg/mL
[4]
  MIC: A. baumannii ATCC 17978: >64 µg/mL
[5]
  MIC: P. aeruginosa PA01: >64 µg/mL
[6]; 48 h
  HepG2 cell 48 h Tox50 (A): >50 µM
[6]; hydrochloride
  Selectivity Index (A/B): >277

## Cl.NCC1OB2OCCOc3ccc(Cl)c1c32 (stereo not drawn) [Example 3]
[2]
  MIC: E. coli K12 tolC::Tn10: >64 µg/mL
[3]
  MIC: E. coli K12: >64 µg/mL
[4]
  MIC: A. baumannii ATCC 17978: >64 µg/mL
[5]
  MIC: P. aeruginosa PA01: >64 µg/mL
[6]; 48 h
  HepG2 cell 48 h Tox50 (A): >50 µM
[6]; hydrochloride
  Selectivity Index (A/B): >106

## NCC1OB2OCCOc3cccc1c32 (racemic) [Example C2-H, reference compound]
[1]; [8]
  MIC: 1.88 µM (≈ 0.385 µg/mL)
[2]
  MIC: E. coli K12 tolC::Tn10: 4 µg/mL (≈ 19.5 µM)
[3]
  MIC: E. coli K12: 2 µg/mL (≈ 9.76 µM)
[4]
  MIC: A. baumannii ATCC 17978: 2 µg/mL (≈ 9.76 µM)
[5]
  MIC: P. aeruginosa PA01: 2 µg/mL (≈ 9.76 µM)
[6]; [9]
  Selectivity Index (A/B): >26
[6]; human, 48 h
  HepG2 cell 48 h Tox50 (A): >50 µM

## CC1COc2ccc(Cl)c3c2B(O1)OC3CN.Cl (stereo not drawn) [Example 7, (3-chloro-8-methyl-7,8-dihydro-2H-1,6,9-trioxa-9a-borabenzo[cd]azulen-2-yl)methanamine Hydrochloride]
[1]; [8]
  MIC: 0.2 µM
[2]
  MIC: E. coli K12 tolC::Tn10: >64 µg/mL
[3]
  MIC: E. coli K12: >64 µg/mL
[4]
  MIC: A. baumannii ATCC 17978: >64 µg/mL
[5]
  MIC: P. aeruginosa PA01: >64 µg/mL
[6]
  Selectivity Index (A/B): >250
[6]; 48 h
  HepG2 cell 48 h Tox50 (A): >50 µM

## C[C@]1(CO)COc2ccc(Cl)c3c2B(OC3CN)O1 (stereo partly drawn) [Example 15, ((2S, 8S, or 2R, 8R)-2-(aminomethyl)-3-chloro-8-methyl-7,8-dihydro-2H-1,6,9-trioxa-9a-borabenzo[cd]azulen-8-yl)methanol]
[1]; [8]
  MIC: 0.93 µM (≈ 0.264 µg/mL)
[6]; [9]
  Selectivity Index (A/B): >50
[6]; human, 48 h
  HepG2 cell 48 h Tox50 (A): >50 µM

## Cl.NC[C@H]1OB2OCCOc3ccc(I)c1c32 [Example 6, (S)-(3-iodo-7,8-dihydro-2H-1,6,9-trioxa-9a-borabenzo[cd]azulen-2-yl)methanamine hydrochloride]
[1]; [8]
  MIC: 0.3 µM

## CC1(C)COc2ccc(Cl)c3c2B(O[C@@H]3CN)O1.Cl [Example 12, (S)-(3-chloro-8,8-dimethyl-7,8-dihydro-2H-1,6,9-trioxa-9a-borabenzo[cd]azulen-2-yl)methanamine Hydrochloride]
[1]; [8]
  MIC: 0.08 µM
[2]
  MIC: E. coli K12 tolC::Tn10: >64 µg/mL
[3]
  MIC: E. coli K12: >64 µg/mL
[4]
  MIC: A. baumannii ATCC 17978: >64 µg/mL
[5]
  MIC: P. aeruginosa PA01: >64 µg/mL

## CC1(C)COc2ccc(Br)c3c2B(O[C@@H]3CN)O1.Cl [Example 10, (S)-(3-bromo-8,8-dimethyl-7,8-dihydro-2H-1,6,9-trioxa-9a-borabenzo[cd]azulen-2-yl)methanamine Hydrochloride]
[1]; [8]
  MIC: 0.16 µM
[2]
  MIC: E. coli K12 tolC::Tn10: >64 µg/mL
[3]
  MIC: E. coli K12: >64 µg/mL
[4]
  MIC: A. baumannii ATCC 17978: >64 µg/mL
[5]
  MIC: P. aeruginosa PA01: >64 µg/mL

## CC1COc2cccc3c2B(O1)OC3CN (stereo not drawn) [Example C11-H, reference compound]
[1]; [8]
  MIC: 1.56 µM (≈ 0.342 µg/mL)
[2]
  MIC: E. coli K12 tolC::Tn10: 2 µg/mL (≈ 9.13 µM)
[3]
  MIC: E. coli K12: 2 µg/mL (≈ 9.13 µM)
[4]
  MIC: A. baumannii ATCC 17978: 4 µg/mL (≈ 18.3 µM)
[5]
  MIC: P. aeruginosa PA01: 2 µg/mL (≈ 9.13 µM)
[6]; 48 h, printed as >50 (40%)
  HepG2 cell 48 h, figure in brackets beside Tox50: 40%
[6]; [9]
  Selectivity Index (A/B): >32
[6]; human, 48 h
  HepG2 cell 48 h Tox50 (A): > 50 µM

## C[C@@]1(CO)COc2ccc(Cl)c3c2B(OC3CN)O1 (single isomer, unassigned) [Example 14, ((2S, 8R or 2R, 8S)-2-(aminomethyl)-3-chloro-8-methyl-7,8-dihydro-2H-1,6,9-trioxa-9a-borabenzo[cd]azulen-8-yl)methanol]
[1]; [8]
  MIC: 1.25 µM (≈ 0.354 µg/mL)
[6]; [9]
  Selectivity Index (A/B): >4
[6]; human, 48 h
  HepG2 cell 48 h Tox50 (A): >50 µM

## CC1(C)COc2c(Cl)ccc3c2B(OC3CN)O1 (stereo not drawn) [Example C8-Cl, reference compound]
[1]; [8]
  MIC: > 5 µM
[6]; [9]
  Selectivity Index (A/B): 10
[6]; human, 48 h
  HepG2 cell 48 h Tox50 (A): >50 µM

## CC1(C)COB2OC(CN)c3c(Cl)ccc(c32)O1 (stereo not drawn) [Example C9-Cl, reference compound]
[1]; [8]
  MIC: 5 µM (≈ 1.34 µg/mL)
[6]; [9]
  Selectivity Index (A/B): >10
[6]; human, 48 h
  HepG2 cell 48 h Tox50 (A): >50 µM

## CC1(C)COB2OC(CN)c3cccc(c32)O1 (stereo not drawn) [Example C10-H, reference compound]
[1]; [8]
  MIC: > 5 µM
[6]; [9]
  Selectivity Index (A/B): 10
[6]; human, 48 h
  HepG2 cell 48 h Tox50 (A): >50 µM

## CC1COc2c(Cl)cc(Cl)c3c2B(O1)OC3CN (stereo not drawn) [Example C7-Cl2, reference compound]
[1]; [8]
  MIC: 2.5 µM (≈ 0.72 µg/mL)
[6]; [9]
  Selectivity Index (A/B): >20
[6]; human, 48 h
  HepG2 cell 48 h Tox50 (A): >50 µM

## C[C@@]1(CO)COc2ccc(Br)c3c2B(OC3CN)O1 (stereo partly drawn) [Example 16, ((2S, 8R, or 2R, 8S)-2-(aminomethyl)-3-bromo-8-methyl-7,8-dihydro-2H-1,6,9-trioxa-9a-borabenzo[cd]azulen-8-yl)methanol]
[1]; [8]
  MIC: 1.25 µM (≈ 0.41 µg/mL)
[6]; [9]
  Selectivity Index (A/B): >40
[6]; human, 48 h
  HepG2 cell 48 h Tox50 (A): >50 µM

## NC[C@H]1OB2OCCOc3ccc(Cl)c1c32 [Example G4-Cl]
[7]; for all of but 1 of the 40 clinical isolate strains tested
  MIC: < 1 µM
[7]; read-out: measured MIC (breakdown), for 1 strain of 97 clinical isolates
  MIC: ≤ 0.2 µM
[7]; read-out: measured MIC (breakdown), for 3 strains of 97 clinical isolates
  MIC: 0.31 µM (≈ 0.0742 µg/mL)
[7]; read-out: measured MIC (breakdown), for 8 strains of 97 clinical isolates (first group)
  MIC: 0.04 µM (≈ 0.00958 µg/mL)
[7]; read-out: measured MIC (breakdown), for 8 strains of 97 clinical isolates (second group)
  MIC: 0.16 µM (≈ 0.0383 µg/mL)
[7]; read-out: measured MIC (breakdown), for 76 strains of 97 clinical isolates
  MIC: 0.08 µM (≈ 0.0192 µg/mL)

## Cl.NCC1OB2OCCOc3ccc(Br)c1c32 (stereo not drawn) [Example 1, 3-bromo-7,8-dihydro-2H-1,6,9-trioxa-9a-borabenzo[cd]azulen-2-yl)methanamine Hydrochloride]
[1]; [8]
  MIC: 0.18 µM

## Cl.NC[C@H]1OB2O[C@H](CO)COc3ccc(F)c1c32 [Example 13, ((2S,8R)-2-(aminomethyl)-3-fluoro-7,8-dihydro-2H-1,6,9-trioxa-9a-borabenzo[cd]azulen-8-yl)methanol Hydrochloride]
[1]; [8]
  MIC: 0.55 µM
[6]
  Selectivity Index (A/B): >10
[6]; 48 h
  HepG2 cell 48 h Tox50 (A): >50 µM

## NCCOc1cccc2c1B(O)OC2 [Example C3-H, reference compound]
[1]; [10]
  MIC: 62 µM (≈ 12 µg/mL)
[6]; 48 h
  HepG2 cell 48 h Tox50 (A): >50 µM
[6]; [9]
  Selectivity Index (A/B): >0.8

## Cl.NCC1OB2OCCOc3ccc(Cl)c1c32 (stereo not drawn) [Example 3, 3-chloro-7,8-dihydro-2H-1,6,9-trioxa-9a-borabenzo[cd]azulen-2-yl)methanamine hydrochloride]
[1]; [8]
  MIC: 0.47 µM

## c1cc2c3c(c1)OCCOB3OC2 [Example C1-H, reference compound]
[1]; [10]
  MIC: 31 µM (≈ 5.46 µg/mL)

## CCOc1cccc2c1B(O)O[C@@H]2CN [Example C5-H, reference compound]
[1]; [10]
  MIC: 0.6 µM (≈ 0.124 µg/mL)
[6]; 48 h
  HepG2 cell 48 h Tox50 (A): 1.8 µM
[6]; [9]
  Selectivity Index (A/B): 3

## Cl.NCC1OB2OCCOc3ccc(F)c1c32 (stereo not drawn) [Example 5]
[2]
  MIC: E. coli K12 tolC::Tn10: 64 µg/mL
[3]
  MIC: E. coli K12: 32 µg/mL
[4]
  MIC: A. baumannii ATCC 17978: >64 µg/mL
[5]
  MIC: P. aeruginosa PA01: 4 µg/mL

## NC[C@H]1OB2OCCOc3c(Cl)cc(Cl)c1c32 [Example C14-Cl2, reference compound]
[1]; [8]
  MIC: > 5 µM
[6]; [9]
  Selectivity Index (A/B): >10
[6]; human, 48 h
  HepG2 cell 48 h Tox50 (A): >50 µM
